In patent publication US7098195B2, “Fluorinated glucosamine analogs useful for modulating post-translational glycosylations on cells” (Health Research, Inc., priority 2001, dated 2006):

Columns and labels:
[1] = tested on: C57BL/6 mice; assay: Langerhans cell migration to draining lymph nodes and FITC presentation in mice; assay type: in vivo, mouse; details: 250 mg/kg/day, cumulative dose of 750 mg/kg, 4-day experiment
Description: Six to eight-week old C57BL/6 mice from Charles River Laboratories (Wilmington, Mass.) were housed in pathogen-free conditions in the animal facility at the Harvard Institutes of Medicine and utilized in these experiments. For analysis of LC migration to draining lymph nodes and antigenic presentation by dendritic cells (DC), right ears of mice were painted with 25 μl of 0.5% FITC, a contact sensitizing agent dissolved in acetone-dibutyl phthalate vehicle (1:1 v/v), while left ears were painted with 25 μl of vehicle alone. After 30 h, regional auricular/cervical lymph nodes draining right or left ears, respectively, were isolated and single cell suspensions were prepared. To enrich for DC, cell suspensions were subjected to Optiprep™ (Accurate Chemicals, Westbury, N.Y.) discontinuous gradient centrifugation. […] Positive cells stained with PE-anti-CD11c were gated and analyzed for FITC expression. […]
Following a 30 h incubation, CD11c-positive LC isolated from the draining lymph nodes were analyzed for FITC expression by flow cytometry.

[2] = previous studies; cited from earlier work
[3] = tested on: CD44 on human hematopoietic KG1a cells; assay: Flow cytometric analysis of CD44 on KG1a cells; assay type: cell-based
Text: (§1) In a similar set of experiments, we analyzed the effects of 4-F-GlcNAc on selectin ligand expression and function on the human hematopoietic cell line KGla. KGla cells express a distinct HECA-452-reactive CD44 glycoform that functions as both an E- and L-selectin ligand (Dimitroff, C. J. et al. (2001) J. Cell Biol., 53: 1277–1286; Dimitroff, C. J. et al. (2000) Proc. Nat. Acad. Sci., 97(25):13841–46; Sackstein, R. and Dimitroff, C. J. (2000) Blood, 96: 2765–74.), otherwise known as HCELL, respectively. This specialized glycoform represents a major E-selectin and the primary L-selectin ligand on normal CD34+ HPCs and on leukemic cells, and, therefore, is also implicated in the BM homing aspects and growth-related activities of HPCs in vivo, respectively (Id.). We first performed flow cytometric analysis of HECA-452 antigen and CD44 on 4-F-GlcNAc-treated KGla cells. […] Only positive cells, which were those cells with fluorescence above background autofluorescence and fluorochrome-conjugated secondary Ab staining, were analyzed.
(§2) Flow cytometric analysis was performed on human leukocytes utilizing both direct and indirect immunofluorescence staining approaches. All cells utilized for these experiments were washed twice with cold PBS/2%FBS and suspended at 10^7/ml PBS/1% FBS. Primary antibodies, anti-CLA (HECA-452), -CD4, -CD8, CD43 (L60) and PSGL-1 (PL-2) along with the appropriate isotype-matched control antibodies were incubated with the cells for 30 min on ice. Following two washes with PBS/2%FBS, cells were resuspended in PBS/1%FBS and fluorochrome-conjugated secondary antibodies (2 μl) and incubated for 30 min on ice. Cells were washed twice with PBS/2%FBS, resuspended in PBS and flow cytometry was performed on a FACScan apparatus equipped with an argon laser tuned at 488 nm (Becton Dickinson).

[4] = tested on: human ovarian, A121, tumor cells; details: cited from earlier work
[5] = Toxicity (body weight, white cell counts, tolerability) in DTH mice; assay type: in vivo, mouse
Description: (§3) Thus, in these studies, a maximal dose of 250 mg/kg as well as 100 and […] doses were used in order to make both toxic and efficacy assessments of fluorinated hexosamine analog anti-inflammatory effects. To induce delayed type hypersensitivity (DTH), C57BL6 mice were sensitized on their abdomen on days 0 and 1 with 25 μl of 0.5% 2,4-dinitrofluorobenzene (DNFB) (i.e. hapten) in a 4:1 solution of acetone to olive oil (vehicle). Negative control mice were sensitized with vehicle alone. Mice were then treated from days 0–6 with drug vehicle (0.9% saline), 50 mg/kg 4-F-GlcNAc, 100 mg/kg 4-F-GlcNAc, 250 mg/kg 4-F-GlcNAc or 250 mg/kg GlcNAc (negative sugar control). Hapten-induced inflammation was then promoted on day 6 by challenging the mice with 10 μl of 0.25% DNFB on both sides of the right ear and mice also received 10 μl of vehicle alone on both sides of the left ear as a negative inflammatory control. Ear swelling responses were measured 24 h later on day 7 and subtracted from baseline measurements that were recorded on day 6.

[6] = tested on: C57BL6 mice; assay: DNFB-induced delayed type hypersensitivity (ear swelling) in mice; assay type: in vivo, mouse
Description: as §3, with “Previous studies evaluating the anti-tumor and anti-metastatic effects of fluorinated hexosamine analogs and 3 or 4-F-GlcNAc, specifically, indicate that the dose limiting toxicity was ˜250 mg/kg×6 days and that i.p. administration of these sugar analogs was an efficacious mode of delivery. Thus,” for “Thus,”
Histological analysis of right ears from mice receiving sensitizing and challenging hapten doses that were treated with saline vehicle control did show the presence of lymphocytic infiltrate and amount of lymphocytic infiltrate corresponded to ear swelling measurements (See FIG. 14 Panel B).

[7] = tested on: HECA-452 epitopes on human hematopoietic KG1a cells; assay: Flow cytometric analysis of HECA-452 epitopes on KG1a cells; assay type: cell-based
Text: as §1, §2

[8] = tested on: HCELL/CD44 activity on human hematopoietic KG1a cells; assay: Stamper-Woodruff adhesion assay, L-selectin-dependent lymphocyte adherence to KG1a cells; assay type: cell-based; details: KG1a neuraminidase then recovery in 0.02 mM
[9] = KG1a neuraminidase then recovery in 0.05 mM
[10] = KG1a neuraminidase then recovery in 0.1 mM
[11] = KG1a neuraminidase then recovery in 0.5 mM

CC(=O)N[C@H]1C(OC(C)=O)O[C@H](COC(C)=O)[C@@H](F)[C@@H]1OC(C)=O (stereo partly drawn) [4-F-GlcNAc, 2-acetamido-2-deoxy-1,3,6-tri-O-acetyl-4-deoxy-4-fluoro-D-glucopyranose]
weight gain [1]: did not show similar weight gain | dose limiting toxicity [2]: ~250 mg/kg×6 days | CD44 % Positive Cell Staining [3, 9]: 100% | CD44 % Positive Cell Staining [3, 10]: 100% | CD44 % Positive Cell Staining [3, 11]: 100% | expression of CD44 on KG1a cells ([3]; even at 0.5 mM): no reduction | incorporation of radiolabeled sugar precursors [4]: conspicuous reductions | WBC counts ([5]; 50 mg/kg, days 0–6): did not affect | mouse body weight ([5]; 50 mg/kg, days 0–6): did not affect | reduction in body weight ([5]; 250 mg/kg, days 0–6): ~5% | total white cell counts ([5]; 250 mg/kg, days 0–6): 60 % of drug controls | tolerability ([5]; 250 mg/kg/d×6): therapy-limiting | tolerability ([5]; 100 and 50 mg/kg/d×6 days): well-tolerated | inflammatory response (ear swelling) ([6]; 50 mg/kg, days 0–6, i.p., p<0.0002): statistically significant diminution | inflammatory response (ear swelling) ([6]; 100 mg/kg, days 0–6, i.p.): completely abrogated | inflammatory response (ear swelling) ([6]; 250 mg/kg, days 0–6, i.p.): completely abrogated | inflammatory responses in FucTVII −/− mice ([6]; FucTVII −/− mice): further reduced | de novo re-expression of the HECA-452 epitopes on KG1a cells ([7]; 0.05, 0.1 or 0.5 mM after neuraminidase): inhibited in a concentration-dependent manner | HECA-452 Mean Channel Fluorescence [7, 9]: 112 | HECA-452 Mean Channel Fluorescence [7, 10]: 108 | HECA-452 Mean Channel Fluorescence [7, 11]: 43

CC(=O)N[C@H]1C(O)O[C@H](CO)[C@@H](O)[C@@H]1O (stereo partly drawn) [GlcNAc, N-acetylglucosamine]
inflammatory response (ear swelling) ([6]; 250 mg/kg negative sugar control, days 0–6): no anti-inflammatory effect

tunicamycin
% Inhibition (lymphocyte binding) [8]: 99% | Mean Lymphocyte Binding [8]: 3.0
